For seven compounds, IC50 results are on record in patent US20060229335A1, “Diarylamine and arylheteroarylamine pyrazole derivatives as modulators of 5ht2a” (priority 2002, published 2006).

In the test the target is non-endogenous, constitutively activated version of the human 5-HT2A receptor (human CART 5-HT2A) (Homo sapiens, UniProt P28223). Description: Intracellular IP3 (inositol phosphate) accumulation assay, inverse agonist potency. Format: cell-based. The conditions noted are these: HEK293 cells transfected with mutated constitutively active 5-HT2A, averages of at least two trials, read-out: 5-HT2A (IC50) IP Accumulation Assay. The text has this:
It is well established that human 5-HT2A receptors coupled to the guanine nucleotide binding protein Gq. 5-HT2A-mediated activation of Gq results in activation of membrane associated phospholipase C which in turn catalyzes the hydrolysis of phosphatidylinositol species (PI, PIP, and PIP2) to form inositol phosphate species (IP, IP2, and IP3). The accumulation of inositol phosphate species can be measured and is often used to determine the functional potency of 5-HT2A agonists or antagonists. However, to evaluate compounds for potential inverse agonist activity, the 5-HT2A receptor must display constitutive activity. We have mutated the human 5-HT2A receptor so as to generate a non-endogenous, constitutively activated version of the 5-HT2A receptor, as disclosed in SEQ ID NO:30 (polynucleotide) and SEQ ID NO:31 (polypeptide) in U.S. Pat. No. 6,541,209 (the disclosure of which is hereby incorporated by reference in its entirety). Upon transfection of this mutated 5-HT2A into HEK293 cells, it was observed that there was a ligand-independent increase in basal inositol phosphate accumulation compared to untransfected cells. This ligand-independent insoitol phosphate accumulation is a trademark of constitutive activity. The following protocol was used to assess inverse agonist potency of compounds.
On day one, 13×10^6 HEK293 cells per 150 mm plate were plated out. On day two, 2 ml of serum OptimemI is added per plate followed by addition of 60 ul of lipofectamine and 16ug of cDNA. Note that lipofectamine must be added to the OptimemI and mixed well before addition of cDNA. While complexes between lipofectamine and the cDNA are forming, media is carefully aspirated and cells are gently rinsed with 5 ml of OptimemI media followed by careful aspiration. Then 12 ml of OptimemI is added to each plate and 2 ml of transfection solution is added followed by a 5 hour incubation at 37° C. in a 5% CO2 incubator. Plates are then carefully aspirated and 25 ml of Complete Media are added to each plate and cells are then incubated until used. On day 3, cells are trypsinized with 5 ml of 0.05% trypsin for 20-30 seconds followed by addition of 10 ml of warmed media, gently titurated to dissociate cells, and then 13 additional ml of warmed media is gently added. Cells are then counted and then 55,000 cells are added to 96-well sterile poly-D-lysine coated plates. Cells are allowed to attach over a six hour incubation at 37° C. in a 5% CO2 incubator. Media is then carefuilly aspirated and 100 ul of warm inositol-free media plus 0.5 μCi ^3H-inositol is added to each well and the plates are incubated for 18-20 hours at 37° C. in a 5% CO2 incubator.
On day 4, media is carefully aspirated and then 0.1 ml of assay medium is added containing inositol-free/serum free media, 10 μM pargyline, 10 mM lithium chloride, and test compound at indicated concentrations. The plates were then incubated for three hours at 37° C. and then wells are carefully aspirated. Then 200 ul of ice-cold 0.1M formic acid is added to each well. Plates can then be frozen at this point at −80° C. until further processed. Frozen plates are then thawed over the course of one hour, and the contents of the wells (approximately 220 ul) are placed over 400 ul of washed ion-exchange resin (AG 1-X8) contained in a Multi Screen Filtration plate and incubated for 10 minutes followed by filtration under vacuum pressure. Resin is then washed nine times with 200 ul of water and then [^3H]inositol phosphates are eluted into a collecting plate by the addition of 200 ul of 1M ammonium formate and an additional 5 minute incubation. The elutant is then transferred to 20 ml scintillation vials, 8 ml of SuperMix or Hi-Safe scintillation cocktails is added, and vials are counted for 0.5-1 minutes in a Wallac 1414 scintilation counter.
At each concentration, triplicate determinations were made. […]
`Cn1ncc(Br)c1-c1cccc(Nc2ccc(C(F)(F)F)cc2)c1` [Compound 44, [3-(4-Bromo-2-methyl-2H-pyrazol-3-yl)-phenyl]-(4-trifluoromethyl-phenyl)-amine]: the IC50 turned out to be 2.99 nM.

Turning to `Cn1ncc(Cl)c1-c1cccc(Nc2ccc(OC(F)(F)F)cc2)c1` [Compound 8, [3-(4-Chloro-2-methyl-2H-pyrazol-3-yl)-phenyl]-(4-trifluoromethoxy-phenyl)-amine], the IC50 is 44.6 nM.

In the case of `Cn1ncc(Br)c1-c1cccc(Nc2ccc(S(C)(=O)=O)cc2)c1` [Compound 46, [3-(4-Bromo-2-methyl-2H-pyrazol-3-yl)-phenyl]-(4-methanesulfonyl-phenyl)-amine], the IC50 was found to be 113 nM.

`Cn1ncc(Br)c1-c1cccc(Nc2ccc(Cl)cc2)c1` [Compound 36, [3-(4-Bromo-2-methyl-2H-pyrazo1-3-yl)-phenyl]-(4-chloro-phenyl)-amine]: the IC50 was 7 nM.

In the case of `Cn1ncc(Br)c1-c1cccc(Nc2nc3ccccc3o2)c1` [Compound 57, Benzoxazol-2-yl-[3-(4-bromo-2-methyl-2H-pyrazol-3-yl)-phenyl]-amine], the half-inhibitory concentration (IC50) was 10.6 nM.

For the compound `Cc1cc(Nc2cccc(-c3c(Br)cnn3C)c2)ccc1Cl` [Compound 49, [3-(4-Bromo-2-methyl-2H-pyrazol-3-yl)-phenyl]-(3-methyl-4-chloro-phenyl)-amine], the concentration for half-maximal inhibition (IC50) turned out to be 19 nM.

Turning to `COc1ccc(Nc2ccc(Cl)cc2)cc1-c1c(Br)cnn1C` [Compound 70, [3-(4-Bromo-2-methyl-2H-pyrazol-3-yl)-4-methoxy-phenyl)-(4-chloro-phenyl)-amine], the IC50 worked out at 1.77 nM.
